Assays:
LH-RH receptors [1] = biological target: T1, LH-RH receptors (Rattus norvegicus, UniProt P30969); test: stimulation of testosterone secretion after oral gavage (plasma testosterone by radioimmunoassay); format: in vivo, Sprague-Dawley rats; design: from tissue; host or cells: pituitary of living adult male Sprague-Dawley rats (in vivo); settings: for stimulation of testosterone secretion: 5 Ng/kg oral, 2 hours, Figure 3; for total plasma testosterone (nmol/l) (m ± sem): 2 nmoles/rat by oral gavage, blood 2 hours after administration, male rats
T1 sequence (P30969 1-327): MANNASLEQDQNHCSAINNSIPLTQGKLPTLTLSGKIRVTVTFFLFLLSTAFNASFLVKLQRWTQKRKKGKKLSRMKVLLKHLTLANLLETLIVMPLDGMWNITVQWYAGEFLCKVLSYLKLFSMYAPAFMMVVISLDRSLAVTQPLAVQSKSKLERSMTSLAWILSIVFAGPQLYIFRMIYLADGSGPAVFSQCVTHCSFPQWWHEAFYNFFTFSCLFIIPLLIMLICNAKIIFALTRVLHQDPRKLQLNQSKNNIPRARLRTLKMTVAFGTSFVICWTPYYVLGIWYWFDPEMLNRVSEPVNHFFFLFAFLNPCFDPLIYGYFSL
Description: For screening purposes, blood samples were drawn 2 hours after oral administration of a common dose of 2 nmoles/rat of LH-RH peptide agonists in an aqueous solution containing 10 or 100 mM of α-CD (Tables 1 and 2; Figures 1, 4 and 6). […] Total plasma testosterone (Diagnostic System Laboratories) and LH (Amersham Pharmacia Biotech) determinations were performed by radioimmunoassay. In screening 2-hour experiments, each group comprised between 6 and 8 rats; each time point of the kinetic study was studied on four animals.
All α-CD derivatives were purchased from Cyclolab (Budapest, Hungary).
(§1) Then, the α-CD solution was added to fill the flask up to 10 ml to make a 2 nmol/ml solution of which 1ml was administered by oral gavage to each rat.
After overnight magnetic stirring at room temperature, each solution was given to rats by oral gavage in a 4 ml/kg volume to administer the same dose of 5 µg/kg of example 2 without or with increasing concentrations of α-CD.

LH-RH receptors [2] = biological target: T1, LH-RH receptors; test: stimulation of LH secretion after oral gavage (plasma LH by radioimmunoassay); format: in vivo, Sprague-Dawley rats; design: from tissue; host or cells: pituitary of living adult male Sprague-Dawley rats (in vivo); settings: 2 nmoles/rat by oral gavage, blood 2 hours after administration, male rats
Description: […] […] Total plasma testosterone (Diagnostic System Laboratories) and LH (Amersham Pharmacia Biotech) determinations were performed by radioimmunoassay. In screening 2-hour experiments, each group comprised between 6 and 8 rats; each time point of the kinetic study was studied on four animals.
Two hours after administration, plasma LH levels were measured on eight rats per dose group (Figure 7).
as §1

LH-RH receptors [3] = biological target: T1, LH-RH receptors; test: inhibition of ovulation by oral administration (ova in oviduct on day of expected estrus); format: in vivo, Wistar rats; design: from tissue; host or cells: pituitary of living adult female Wistar rats (in vivo)
Description: The peptides according to the general formula (I') exert an antagonist activity upon the LH-RH receptors in vivo, resulting in particular in the inhibition of ovulation.
The influence of α-, β- and γ-CD was tested on the activity of antide (an example of LH-RH peptide antagonist) when orally admininisted by gavage to normally cycling adult female Wistar rats between 1:30 and 3:00 p.m. on the day of proestrus, after at least two full regular estrous cycles as monitored by daily vaginal smears. The antiovulatory efficacy was checked the next morning, on the day of expected estrus, by looking for ova in the oviduct of treated females. The presence of at least one ovum attested that some degree of spontaneous ovulation did occur, and only the total absence of ovum was considered as effective LH-RH antagonist-induced inhibition of ovulation. Antide was solubilized in a vehicle consisting of 20% (vol/vol) propylene glycol in water already containing […], to which 10% (wt/vol) of either α-, β- or γ-CD was then added.
Each 5 mg powder vial of antide (from Bachem, Bubendorf, Switzerland) containing 4.2434 mg net peptide was dissolved in a mixture of 2.122 ml propylene glycol with 8.487 ml water containing 0.1% bovine albumin. To each 10.609 ml solution of antide (400 µg/ml), 1.061 g of either α-, β- or γ-CD was directly added to obtain a 10% concentration. Each female rat received the same volume of 1 ml of test formulation by gavage.
The same volume of administration was used for the doses of 200 and 600 µg/rat.

[4] = without α-CD (standard aqueous vehicle)
[5] = vehicle + α-CD (10%), antide 200 µg/rat p.o.
[6] = vehicle + α-CD (10%), antide 400 µg/rat p.o.
[7] = vehicle + α-CD (10%), antide 600 µg/rat p.o.
[8] = vehicle + β-CD (10%), antide 400 µg/rat p.o.
[9] = vehicle + γ-CD (10%), antide 400 µg/rat p.o.
[10] = vehicle only, antide 200 µg/rat p.o.
[11] = vehicle only, antide 400 µg/rat p.o.
[12] = vehicle only, antide 600 µg/rat p.o.

| Compound | total plasma testosterone (nmol/l) (m ± sem) (LH-RH receptors [1]; with α-CD (100 mM solution)) | total plasma testosterone (nmol/l) (m ± sem) (LH-RH receptors [1]; [4]) [nmol/L] | total plasma LH (ng/ml) (m ± sem) (LH-RH receptors [2]; with α-CD (100 mM solution)) [ng/mL] | total plasma LH (ng/ml) (m ± sem) (LH-RH receptors [2]; without α-CD) [ng/mL] | other results |
| --- | --- | --- | --- | --- | --- |
| CCNC(=O)[C@@H]1CCCN1C(=O)[C@H](CCCNC(=N)N)NC(=O)[C@H](CC(C)(C)C)NC(=O)[C@@H](C)NC(=O)[C@H](Cc1ccc(O)cc1)NC(=O)[C@H](CO)NC(=O)[C@H](Cc1c[nH]c2ccccc12)NC(=O)[C@H](Cc1c[nH]cn1)NC(=O)[C@@H]1CCC(=O)N1 [Example 2, [D-Ala^6, Npg7, desGly^10-ProNEt^9]LH-RH] | 72.8 ± 4.64 nmol/L | 23.0 ± 8.54 | 19.7 ± 3.70 | 1.6 ± 0.14 | stimulation of testosterone secretion (LH-RH receptors [1]; with 5% (51.4 mM) α-CD): did enhance; stimulation of testosterone secretion (LH-RH receptors [1]; with 10% (103 mM) as well as 14% (144 mM) α-CD): maximal level |
| CCNC(=O)[C@@H]1CCCN1C(=O)[C@H](CCCNC(=N)N)NC(=O)[C@H](CC(C)(C)C)NC(=O)[C@@H](Cc1ccccc1)NC(=O)[C@H](Cc1ccc(O)cc1)NC(=O)[C@H](CO)NC(=O)[C@H](Cc1c[nH]c2ccccc12)NC(=O)[C@H](Cc1c[nH]cn1)NC(=O)[C@@H]1CCC(=O)N1 [Example 4, [D-Phe^6, Npg7, desGly^10-ProNEt^9]LH-RH] | 67.9 ± 9.11 nmol/L | 30.1 ± 5.86 | 16.1 ± 5.22 | 1.4 ± 0.17 |  |
| CCNC(=O)[C@@H]1CCCN1C(=O)[C@H](CCCNC(=N)N)NC(=O)[C@H](CC(C)C)NC(=O)[C@@H](C)NC(=O)[C@H](Cc1ccc(O)cc1)NC(=O)[C@H](CO)NC(=O)[C@H](Cc1c[nH]c2ccccc12)NC(=O)[C@H](Cc1c[nH]cn1)NC(=O)[C@@H]1CCC(=O)N1 [Example 6, [D-Ala^6, desGly^10-ProNet^9]LH-RH] | 61.8 ± 5.10 nmol/L | 28.3 ± 4.56 |  |  |  |
| [(S)spirolactam(Pro^6, Npg^7), desGly^10-ProNEt^9]LH-RH [Example 1] | 58.0 ± 8.75 nmol/L | 40.1 ± 6.78 | 7.1 ± 1.68 | 1.5 ± 0.19 |  |
| [Npg^7]triptorelin [Example 5] | 52.1 ± 6.99 nmol/L | 15.8 ± 4.24 | 3.2 ± 0.56 | 1.4 ± 0.10 |  |
| antide |  |  |  |  | influence of Beta- and γ-CD on the minimal activity of antide (LH-RH receptors [3]; combined with β- or γ-CD (10%), dose level of 400): no influence; animals showing inhibition of ovulation (LH-RH receptors [3]; out of 22 animals, vehicle only, threshold dose of 400): 3; n ovulations/ N treated rats (LH-RH receptors [3]; [5]): 6/8; percentage of inhibition (LH-RH receptors [3]; [5]): 25%; n ovulations/ N treated rats (LH-RH receptors [3]; [6]): 6/22; percentage of inhibition (LH-RH receptors [3]; [6]): 73%; n ovulations/ N treated rats (LH-RH receptors [3]; [7]): 2/8; percentage of inhibition (LH-RH receptors [3]; [7]): 75%; n ovulations/ N treated rats (LH-RH receptors [3]; [8]): 7/7; percentage of inhibition (LH-RH receptors [3]; [8]): 0%; n ovulations/ N treated rats (LH-RH receptors [3]; [9]): 7/7; percentage of inhibition (LH-RH receptors [3]; [9]): 0%; threshold effective dose by oral administration (LH-RH receptors [3]; vehicle only (no cyclodextrin), inhibition of ovulation): 400 µg/rat; n ovulations/ N treated rats (LH-RH receptors [3]; [10]): 8/8; percentage of inhibition (LH-RH receptors [3]; [10]): 0%; n ovulations/ N treated rats (LH-RH receptors [3]; [11]): 19/22; percentage of inhibition (LH-RH receptors [3]; [11]): 14%; n ovulations/ N treated rats (LH-RH receptors [3]; [12]): 5/8; percentage of inhibition (LH-RH receptors [3]; [12]): 44% |
| deslorelin | marked potency | 9.7 ± 2.41 |  |  | total plasma testosterone (nmol/l) (m ± sem) (LH-RH receptors [1]; with α-CD (100 mM solution), listed as Deslorelin (α-CD)): 48.2 ± 7.29 nmol/L; total plasma testosterone (nmol/l) (m ± sem) (LH-RH receptors [1]; without α-CD (standard aqueous vehicle), listed as deslorelin): inactive |
| goserelin | 66.5 ± 6.19 nmol/L | 21.4 ± 5.99 |  |  |  |
| triptorelin | 61.9 ± 6.01 nmol/L | 25.8 ± 3.14 | 10.1 ± 2.54 | 1.4 ± 0.10 |  |

— EP1117420B1, “PHARMACEUTICAL COMPOSITIONS BASED ON ALPHA-CYCLODEXTRIN FOR THE ORAL ADMINISTRATION OF LH-RH ANALOGUES” (LABORATOIRE THERAMEX S.A., priority 1998, dated 2000)
